# How the values were obtained:
# Assay type in all cases: in vivo
# rice (Oryza sativa) = assay: Test B flooded paddy test plant response
# How it was run: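 2-leaf plants; pots flooded 3 cm above soil; compound added to paddy water; depth maintained. Greenhouse 13–15 d. Visual rating vs controls, 0 (no effect) to 100 (complete control); dash = no result.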
# soybean (Glycine max) = assay: Test B pre-/postemergence plant response; details: for Soybean plant response rating: 8 g ai/ha
# How it was run: (§1)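 Preemergence and postemergence (plants 2-18 cm, 1- to 4-leaf stage) applications used test chemicals in a non-phytotoxic solvent with surfactant. Plants were held in a greenhouse 13 to 15 days, then rated visually against controls on a 0-100 scale (0 no effect, 100 complete control).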
# [1] = system: morningglory (Ipomoea coccinea); assay: Test B pre-/postemergence plant response; details: for Morningglory plant response rating: 8 g ai/ha
# How it was run: as §1
# [2] = system: large crabgrass (Digitaria sanguinalis); assay: Test B pre-/postemergence plant response; details: for Crabgrass, Large plant response rating: 8 g ai/ha
# How it was run: as §1
# kochia (Kochia scoparia) = assay: Test B pre-/postemergence plant response; details: for Kochia plant response rating: 8 g ai/ha
# How it was run: as §1
# [3] = system: Italian ryegrass (Lolium multiflorum); assay: Test B pre-/postemergence plant response; details: for Ryegrass, Italian plant response rating: 8 g ai/ha
# How it was run: as §1
# [4] = system: lambsquarters (Chenopodium album); assay: Test B pre-/postemergence plant response; details: for Lambsquarters plant response rating: 8 g ai/ha
# How it was run: as §1
# [5] = system: velvetleaf (Abutilon theophrasti); assay: Test B pre-/postemergence plant response; details: for Velvetleaf plant response rating: 8 g ai/ha
# How it was run: as §1
# [6] = system: goosegrass (Eleusine indica); assay: Test B pre-/postemergence plant response; details: for Goosegrass plant response rating: 8 g ai/ha
# How it was run: as §1
# [7] = system: giant foxtail (Setaria faberii); assay: Test B pre-/postemergence plant response; details: for Foxtail, Giant plant response rating: 8 g ai/ha
# How it was run: as §1
# [8] = system: bermudagrass (Cynodon dactylon); assay: Test B pre-/postemergence plant response; details: for Bermudagrass plant response rating: 8 g ai/ha
# How it was run: as §1
# [9] = system: johnsongrass (Sorghum halepense); assay: Test B pre-/postemergence plant response; details: for Johnsongrass plant response rating: 8 g ai/ha
# How it was run: as §1
# [10] = system: pigweed (Amaranthus retroflexus); assay: Test B pre-/postemergence plant response; details: for Pigweed plant response rating: 8 g ai/ha
# How it was run: as §1
# [11] = system: catchweed bedstraw (Galium aparine); assay: Test B pre-/postemergence plant response; details: Preemergence
# How it was run: as §1
# [12] = Postemergence, 16 g ai/ha, scale 0 to 100
# [13] = Postemergence, 62 g ai/ha, scale 0 to 100, 0 no effect, 100 complete control
# [14] = Preemergence, 16 g ai/ha, scale 0 to 100 (0 no effect, 100 complete control)
# [15] = Preemergence, 31 g ai/ha, scale 0 to 100 (0 no effect, 100 complete control)
# [16] = Preemergence, 62 g ai/ha, scale 0 to 100
# [17] = Postemergence, 31 g ai/ha, scale 0 to 100, 0 no effect, 100 complete control
# [18] = Preemergence, 31 g ai/ha, 0 to 100 scale, 0 no effect, 100 complete control
structure (smiles),measurement,setting,value
CCCc1cc(-c2ccc(Cl)cc2)nn1-c1c(O)cnn(C)c1=O [Compound 43],"Plant response rating, Rice","rice (Oryza sativa); Flood (flooded paddy test), 62 g ai/ha, scale 0 to 100, 0 no effect, 100 complete control",15
same,"Plant response rating, Rice","rice (Oryza sativa); Flood (flooded paddy test), 125 g ai/ha, scale 0 to 100, 0 no effect, 100 complete control",20
same,"Plant response rating, Rice","rice (Oryza sativa); Flood (flooded paddy test), 250 g ai/ha, scale 0 to 100, 0 no effect, 100 complete control",20
same,"Plant response rating, Rice","rice (Oryza sativa); Flood, 31 g ai/ha, scale 0 to 100",0
same,Soybean plant response rating,"soybean (Glycine max); postemergence, 0-100 scale",0
same,"Plant response rating, Soybean",soybean (Glycine max); [12],0
same,"Plant response rating, Soybean",soybean (Glycine max); [13],0
same,"Plant response rating, Soybean",soybean (Glycine max); [14],0
same,"Plant response rating, Soybean",soybean (Glycine max); [15],0
same,"Plant response rating, Soybean",soybean (Glycine max); [16],0
same,Soybean plant response rating,"soybean (Glycine max); Preemergence, scale 0 to 100",0
same,Morningglory plant response rating,"[1]; postemergence, 0-100 scale",0
same,"Plant response rating, Morningglory",[1]; [12],0
same,"Plant response rating, Morningglory",[1]; [17],0
same,"Plant response rating, Morningglory",[1]; [13],0
same,"Plant response rating, Morningglory",[1]; [14],0
same,"Plant response rating, Morningglory",[1]; [15],0
same,"Plant response rating, Morningglory",[1]; [16],0
same,Morningglory plant response rating,"[1]; Preemergence, scale 0 to 100",0
same,"Crabgrass, Large plant response rating","[2]; postemergence, 0-100 scale",65
same,"Plant response rating, Crabgrass, Large",[2]; [12],70
same,"Plant response rating, Crabgrass, Large",[2]; [17],75
same,"Plant response rating, Crabgrass, Large",[2]; [13],85
same,"Plant response rating, Crabgrass, Large",[2]; [14],65
same,"Plant response rating, Crabgrass, Large",[2]; [18],98
same,"Plant response rating, Crabgrass, Large",[2]; [16],100
same,"Crabgrass, Large plant response rating","[2]; Preemergence, scale 0 to 100",15
same,Kochia plant response rating,"kochia (Kochia scoparia); postemergence, 0-100 scale",0
same,"Plant response rating, Kochia",kochia (Kochia scoparia); [12],0
same,"Plant response rating, Kochia",kochia (Kochia scoparia); [17],0
same,"Plant response rating, Kochia",kochia (Kochia scoparia); [13],0
same,"Plant response rating, Kochia",kochia (Kochia scoparia); [14],0
same,"Plant response rating, Kochia",kochia (Kochia scoparia); [18],0
same,"Plant response rating, Kochia",kochia (Kochia scoparia); [16],0
same,Kochia plant response rating,"kochia (Kochia scoparia); Preemergence, scale 0 to 100",0
same,"Ryegrass, Italian plant response rating","[3]; postemergence, 0-100 scale",80
same,"Plant response rating, Ryegrass, Italian",[3]; [12],90
same,"Plant response rating, Ryegrass, Italian",[3]; [17],100
same,"Plant response rating, Ryegrass, Italian",[3]; [13],100
same,"Plant response rating, Ryegrass, Italian",[3]; [14],90
same,"Plant response rating, Ryegrass, Italian",[3]; [15],90
same,"Plant response rating, Ryegrass, Italian",[3]; [16],90
same,"Ryegrass, Italian plant response rating","[3]; Preemergence, scale 0 to 100",90
same,Lambsquarters plant response rating,"[4]; postemergence, 0-100 scale",0
same,"Plant response rating, Lambsquarters",[4]; [12],0
same,"Plant response rating, Lambsquarters",[4]; [17],0
same,"Plant response rating, Lambsquarters",[4]; [13],0
same,"Plant response rating, Lambsquarters",[4]; [14],0
same,"Plant response rating, Lambsquarters",[4]; [18],0
same,"Plant response rating, Lambsquarters",[4]; [16],0
same,Lambsquarters plant response rating,"[4]; Preemergence, scale 0 to 100",0
same,Velvetleaf plant response rating,"[5]; postemergence, 0-100 scale",0
same,"Plant response rating, Velvetleaf",[5]; [12],0
same,"Plant response rating, Velvetleaf",[5]; [13],0
same,"Plant response rating, Velvetleaf",[5]; [14],0
same,"Plant response rating, Velvetleaf",[5]; [15],0
same,"Plant response rating, Velvetleaf","[5]; Preemergence, 62 g ai/ha, 0 to 100 scale, 0 no effect, 100 complete control",0
same,Velvetleaf plant response rating,"[5]; Preemergence, scale 0 to 100",0
same,Goosegrass plant response rating,"[6]; postemergence, 0-100 scale",60
same,"Plant response rating, Goosegrass",[6]; [12],70
same,"Plant response rating, Goosegrass",[6]; [17],75
same,"Plant response rating, Goosegrass",[6]; [13],85
same,"Plant response rating, Goosegrass",[6]; [14],75
same,"Plant response rating, Goosegrass",[6]; [18],98
same,"Plant response rating, Goosegrass",[6]; [16],100
same,Goosegrass plant response rating,"[6]; Preemergence, scale 0 to 100",65
same,"Foxtail, Giant plant response rating","[7]; postemergence, 0-100 scale",85
same,"Plant response rating, Foxtail, Giant",[7]; [12],98
same,"Plant response rating, Foxtail, Giant",[7]; [17],98
same,"Plant response rating, Foxtail, Giant",[7]; [13],100
same,"Plant response rating, Foxtail, Giant",[7]; [14],100
same,"Plant response rating, Foxtail, Giant",[7]; [18],100
same,"Plant response rating, Foxtail, Giant",[7]; [16],100
same,"Foxtail, Giant plant response rating","[7]; Preemergence, scale 0 to 100",95
same,Bermudagrass plant response rating,"[8]; postemergence, 0-100 scale",20
same,"Plant response rating, Bermudagrass",[8]; [12],45
same,"Plant response rating, Bermudagrass",[8]; [17],65
same,Bermudagrass plant response rating,"[8]; Preemergence, scale 0 to 100 (0 no effect, 100 complete control)",0
same,"Plant response rating, Bermudagrass",[8]; [14],0
same,"Plant response rating, Bermudagrass",[8]; [18],65
same,"Plant response rating, Bermudagrass",[8]; [16],95
same,Johnsongrass plant response rating,"[9]; postemergence, 0-100 scale",0
same,"Plant response rating, Johnsongrass",[9]; [12],0
same,"Plant response rating, Johnsongrass",[9]; [17],80
same,"Plant response rating, Johnsongrass",[9]; [13],100
same,"Plant response rating, Johnsongrass",[9]; [14],65
same,"Plant response rating, Johnsongrass",[9]; [18],80
same,"Plant response rating, Johnsongrass",[9]; [16],98
same,Johnsongrass plant response rating,"[9]; Preemergence, scale 0 to 100",20
same,Pigweed plant response rating,"[10]; postemergence, 0-100 scale",0
same,"Plant response rating, Pigweed",[10]; [12],0
same,"Plant response rating, Pigweed",[10]; [17],0
same,"Plant response rating, Pigweed",[10]; [13],0
same,"Plant response rating, Pigweed",[10]; [14],0
same,"Plant response rating, Pigweed",[10]; [15],0
same,"Plant response rating, Pigweed",[10]; [16],0
same,Pigweed plant response rating,"[10]; Preemergence, scale 0 to 100",0
same,"Plant response rating, Galium","[11]; 16 g ai/ha, scale 0 to 100 (0 no effect, 100 complete control)",0
same,"Plant response rating, Galium","[11]; 31 g ai/ha, 0 to 100 scale, 0 no effect, 100 complete control",0
same,"Plant response rating, Galium","[11]; 62 g ai/ha, scale 0 to 100",0
same,Galium plant response rating,"[11]; 8 g ai/ha, scale 0 to 100",0

# From patent publication US20100267561A1, “HERBICIDAL PYRIDAZINONE DERIVATIVES” (priority 2007, published 2010)
